This is an account of results in patent US8546430B2, “Thalidomide analogs” (P2D, Inc., priority 2003, dated 2013).

SMILES strings stand for the structures. Entries after “also recorded” stand apart in the source; their conditions may differ. A value given as a limit tells only on which side of the number the result lay.

One series has as its system TNF-α. Kind of series: Inhibition of LPS-induced TNF-α secretion in human PBMC (ELISA). Type of series: cell-based. Particulars: for IC50 / inhibition at 30 µM: Homo sapiens, LPS-induced TNF-α production in PBMC; for TNF-α inhibitory activity (in words): LPS-stimulated PBMC; for Fold more active than thalidomide 201: inhibition of TNF-α synthesis, from IC50 values. As to the method: (§1) The action of the these thiothalidomide analogs in inhibiting TNF-α secretion was assessed in human peripheral blood mononuclear cells (PBMC) and the results are shown in Table 1. Freshly prepared PBMCs were utilized in all studies. Blood, 40 ml, was drawn from a volunteer, immediately mixed with 50 U/ml Na heparin and was diluted to 50 ml total volume with sterile PBS. Samples, 20 ml, of this preparation then were layered on 20 ml Ficoll-Paque and were centrifuged (800 g, 20 min). The Ficoll/serum interface, containing PBMCs, was collected, diluted to 200 ml with PBS, and then was centrifuged (800 g, 15 min) to pellet the cells. Thereafter, the recovered pellet was re-suspended in 37° C. tissue culture medium (RPMI/1 mM Sodium pyruvate/10% heat inactivated FBS/2 mM Glutamax) and placed on ice. Recovered cells were counted, pipetted (200 ul of 5×10^5/ml) into 96 well plates, and incubated for an hour (37° C., 5% CO2). Thereafter, appropriate concentrations of test compounds or vehicle (10 ul DMSO) were added to duplicate wells. Following a further hour of incubation, a 10 ul sample of lipopolysaccharide (LPS) (100 ng/ml in supplemented medium) or vehicle was added to induce stimulated and unstimulated cells, respectively, and the cells were incubated overnight. Sixteen hours later, supernatants were collected for quantification of TNF-α levels by ELISA assay (Pierce-Endogen human TNF-α mini kit, Rockford, Ill.) and the use of specific capture and detection monoclonal antibodies, M303E and M302B (Pierce-Endogen), respectively. ELISA plates were read at λ=450 nm and TNF-α levels were determined from a six-point calibration curve that was run concurrently with the test samples. The effect of test drug concentrations on the cellular viability of PBMCs was assessed by MTS assay (Promega, Madison, Wis.) of the cells that provided the supernatant samples assayed for TNF-α levels, described above. It should be understood that this method can be used to test any of the disclosed compounds as a screening assay for readily determining their TNF-α modulating activity, and for selecting them for use in the disclosed method of treating a subject.

In a further series the test system is 3′-UTR of human TNF-α. Kind of series: Luciferase reporter assay, RAW264.7 cells with vs without the TNF-α 3′-UTR. Type of series: cell-based. The conditions noted are these: mouse macrophage line RAW264.7, 16 h; FIG. 1. The method, then:
To determine the involvement of the 3′-UTR in the action of the thalidomide analogs, their ability to inhibit reporter gene activity in cells containing the TNF-α3′-UTR versus a control vector was assessed. This cell-based assay utilized two stably transfected cell lines derived from the mouse macrophage line, RAW264.7. One line, designated “luciferase only” expressed a luciferase reporter construct without any UTR sequences. The other line, designated “luciferase+TNF-α UTR” expressed a luciferase reporter construct with the entire 3′-UTR of human TNF-α inserted directly downstream of the luciferase coding region. Compounds were added in a concentration-dependent manner, and at the end of the incubation period (16 h, 37° C., 5% CO2) the media was removed, cells were lysed and luciferase activity was assayed with Steady-glo luciferase assay reagent (Promega) according to the supplier's directions. Background was subtracted and data from this assay was expressed as a ratio of the +3′-UTR to −3′-UTR (control) values, and was expressed as a percent as shown in FIG. 1. In this manner, compounds that show a differential effect on the two cell lines, with and without a 3′-UTR, are highlighted. […] All agents lowered luciferase reporter activity in cells stably expressing the 3′-UTR.
Background: A reporter such as luciferase makes a cellular process visible.

The test system of the next series is PBMC. Kind of series: Cellular viability of PBMCs by MTS assay. Type of series: cell-based, human. The method, then:
as §1
In general terms: Tetrazolium dyes change colour on reduction, which living cells bring about.

For the next series, the system named is rat aortic ring. Kind of series: Rat aortic ring microvessel growth assay. The series is classed as cell-based. The conditions noted are these: 0.1-20 μg/ml daily for 4 days; FIGS. 2-11. As to the method: The angiogenesis modulating activity of representative compounds was assessed in a rat aortic ring microvessel growth assay. Briefly, twelve-well tissue culture plates were coated with 250 μl of Matrigel (Becton-Dickinson, Bedford, Mass.) and allowed to gel for 30 min at 37° C. and 5% CO2. Thoracic aortas were excised from 8- to 10-week-old male Sprague Dawley rats. After careful removal of fibroadipose tissues, the aortas were cut into 1-mm-long cross-sections, placed on Matrigel-coated wells, and covered with an additional 250 μl of Matrigel. After the second layer of Matrigel had set, the rings were covered with EGM-II and incubated overnight at 37° C. and 5% CO2. EGM-II consists of endothelial cell basal medium (EBM-II; Clonetics, San Diego, Calif.) plus endothelial cell growth factors provided as the EGM-II Bulletkit (Clonetics). The culture medium was subsequently changed to EBM-II supplemented with 2% fetal bovine serum, 0.25 μg/ml amphotericin B, and 10 μg/ml gentamicin. Aortic rings were treated daily with either the vehicle (0.5% DMSO), carboxyamidotriazole (CAI, 12 μg/ml), thalidomide or thalidomide analogs (0.1-20 μg/ml) for 4 days and photographed on the 5th day using a ×2.5 objective. CAI, a known antiangiogenic agent, was used at higher than clinically achievable concentration as a positive control. Experiments were repeated four times using aortas from four different rats. The area of angiogenic sprouting, reported in square pixels, was quantified using Adobe PhotoShop. Further details of the method are provided in Luzzio et al., J Med Chem.; 46:3793-9, 2003, which is incorporated by reference herein. It should be understood that this method can be used as an assay to rapidly select compounds having a desired angiogenic or anti-angiogenic effect, for example, for use in the disclosed methods of treating a subject.

Broadly, the IC50 is the concentration that inhibits the measured activity by half. Low readings indicate greater potency, high ones weaker potency. Regarding `O=C1CCC(N2C(=O)c3ccccc3C2=O)C(=O)N1` (stereo not shown) [Compound 201, Thalidomide], the “Inhibition of TNF-α secretion at 30 μM (in words)” value with TNF-α (30 μM) was “entirely lacked activity”. Also, the concentration for half-maximal inhibition (IC50) in the series on TNF-α was around 200 µM. The “Concentration required for significant activity” value in the series with TNF-α (inhibition of TNF-α secretion) is 100 µM. In addition, in the series on 3′-UTR of human TNF-α, the “Luciferase reporter activity, +3′-UTR versus −3′-UTR cells (in words)” value is recorded as “lacked activity at 50 μM”.
As a reminder, the inhibition is the share of the control response that was lost under treatment. A word on the melting point: it is the temperature of the solid-liquid transition. `O=C(O)CCC(C(=O)O)N1C(=O)c2ccccc2C1=S` (stereo not shown) [Compound 211, 2-(1,3-Dihydro-1-oxo-3-thioxo-2H-isoindol-2-yl)-pentanedioic acid]: the melting point was determined as 157 °C. In the series on TNF-α, the IC50 was above 30 µM and the “TNF-α inhibitory activity (in words)” value is “lowered potency”. The inhibition at 30 µM with TNF-α (30 μM) was found to be 20%. Further, in the series with PBMC, the Cell viability at 0.3 μM stood at 93%, the Cell viability at 3 μM stood at 93% and the Cell viability at 30 μM came to 86%. Moreover, in the series with rat aortic ring, the “Angiogenic modulating activity (in words)” value was “angiogenic activity at all concentrations tested”.
In turn, `O=C1c2ccccc2C(=O)N1C1CCC(=S)NC1=S` (stereo not shown) [Compound 213, 2-(2,6-Dithioxo-3-piperidinyl)-1H-isoindole-1,3(2H)-dione] showed a melting point of 263 to 265 °C. In addition, in the series with TNF-α, the IC50 came to 20 µM and the “TNF-α inhibitory activity (in words)” value is reported as “less active than dithioglutarimide 219”. Moreover, 30 µM produced 52% inhibition in the series on TNF-α (30 μM). Besides, in the series on PBMC, the “Toxicity / cytotoxicity (in words)” value is on record as “induced increasing cytotoxicity at higher concentrations; also recorded: induces toxicity at high concentration”, the Cell viability at 0.3 μM worked out at 94%, the Cell viability at 3 μM amounted to 87% and the Cell viability at 30 μM was determined as 69%. In addition, in the series on rat aortic ring, the “Angiogenic modulating activity (in words)” value is “anti-angiogenic activity at all concentrations tested”.
`O=C1NC(=S)CCC1N1C(=O)c2ccccc2C1=S` (stereo not shown) [Compound 215, 2,3-dihydro-3-thioxo-2-(2-oxo-6-thioxo-3-piperidinyl)-1H-isoindol-1-one]: in the series on TNF-α, the midpoint of inhibition, the IC50, lay at 11 µM and the “TNF-α inhibitory activity (in words)” value was “potently inhibited TNF-α secretion”. The compound further returned an inhibition at 30 µM in the series with TNF-α (30 μM) of 61%. Further, in the series with PBMC, the “Toxicity / cytotoxicity (in words)” value was “without toxicity”, the Cell viability at 0.3 μM came to 94%, the Cell viability at 3 μM is 87% and the Cell viability at 30 μM is above 100%. Further, the “Luciferase reporter activity, +3′-UTR versus −3′-UTR cells (in words)” value in the series on 3′-UTR of human TNF-α is “differential effect on the two cell lines in a dose-dependent manner”.
With `O=C1c2ccccc2C(=S)N1C1CCC(=S)NC1=S` (stereo not shown) [Compound 216, 2,3-Dihydro-3-thioxo-2-(2,6-dithioxo-3-piperidinyl)-1H-isoindol-1-one], in the series with TNF-α, the 50% inhibitory concentration (IC50) worked out at 6 µM, the “TNF-α inhibitory activity (in words)” value is “potently inhibited TNF-α secretion” and the “Fold more active than thalidomide 201” value was “over 30 fold”. In addition, the inhibition at 30 µM in the series with TNF-α (30 μM) worked out at 79%. In addition, in the series with PBMC, the “Toxicity / cytotoxicity (in words)” value is recorded as “without accompanying toxicity”, the Cell viability at 0.3 μM was found to be 90%, the Cell viability at 3 μM was 86% and the Cell viability at 30 μM was 94%. The “Luciferase reporter activity, +3′-UTR versus −3′-UTR cells (in words)” value with 3′-UTR of human TNF-α is “differential effect on the two cell lines in a dose-dependent manner”. The “Angiogenic modulating activity (in words)” value with rat aortic ring is “potent anti-antigiogenic activity at higher concentrations and angiogenic activity at lower concentrations”.
Compound `S=C1CCCC(=S)N1` [Compound 219, 2,6-Piperidinedithione] returned a melting point of 103 °C. In addition, in the series on TNF-α, inhibition was half-maximal at 8 µM (IC50), the “TNF-α inhibitory activity (in words)” value is listed as “potent inhibitory effect; also recorded: potently inhibited TNF-α secretion” and the “Fold more active than thalidomide 201” value amounted to 25 fold. Further, in the series on TNF-α (30 μM), testing at 30 µM gave an inhibition of 75%. In addition, in the series on PBMC, the “Toxicity / cytotoxicity (in words)” value is listed as “lack of toxicity; also recorded: without toxicity”, the Cell viability at 0.3 μM was 99%, the Cell viability at 3 μM was 98% and the Cell viability at 30 μM was above 100%. Also, the “Luciferase reporter activity, +3′-UTR versus −3′-UTR cells (in words)” value in the series on 3′-UTR of human TNF-α is on record as “differential effect on the two cell lines in a dose-dependent manner”.
